Assay results reported in patent US20200288710A1, “SUBSTITUTED SULPHONAMIDES FOR CONTROLLING ANIMAL PESTS” (BAYER CROPSCIENCE AKTIENGESELLSCHAFT, priority 2016, published 2020).

Key:
Type in all cases: in vivo
[1] = tested on: Myzus persicae; assay: Myzus persicae spray test (Chinese cabbage leaf discs); settings: foliar, 120 h, after 5-6 days, read-out: efficacy
Procedure, shortened: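 Chinese cabbage leaf discs infested with all stages of green peach aphid were sprayed with compound formulated in acetone/DMF and emulsifier-containing water. Efficacy in % was scored after 5-6 days, with 100% meaning all aphids killed and 0% none killed.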

[2] = tested on: Meloidogyne incognita; assay: Meloidogyne incognita test; settings: 336 h, lettuce, after 14 days, read-out: nematicidal efficacy (formation of galls)
Method: Meloidogyne incognita Test Solvent: 125.0 parts by weight of acetone To produce a suitable active compound preparation, 1 part by weight of active compound is mixed with the stated amount of solvent and the concentrate is diluted with water to the desired concentration. Vessels are filled with sand, active compound solution, an egg/larvae suspension of the southern rootknot nematode (Meloidogyne incognita) and lettuce seeds. The lettuce seeds germinate and the plants develop. The galls develop on the roots. After 14 days, the nematicidal efficacy in % is determined by the formation of galls. 100% means that no galls were found; 0% means that the number of galls on the treated plants corresponds to the untreated control.

[3] = tested on: Myzus persicae; assay: Myzus persicae oral test; settings: 120 h, 20 ppm, oral uptake, after 5 days, read-out: efficacy
Procedure, shortened: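 Compound dissolved in acetone, diluted in water, then mixed 50:150 μl with IPL41 insect medium (33%+15% sugar). Mixed-population green peach aphids feed through a parafilm seal on the solution; mortality scored as % efficacy after 5 days (100% = all killed).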

| Compound | pest or weed control at 500 g/ha [1] [%] | pest or weed control at 20 ppm [2] [%] | pest or weed control at 20 ppm [3] [%] | pest or weed control at 100 g/ha ([1]; 100 g/ha) [%] |
| --- | --- | --- | --- | --- |
| Cc1cc(C(=O)NS(=O)(=O)c2ccccc2Br)nn1-c1ncccc1Cl [Example 283] | 100 | 90 | 100 |  |
| COc1cccc(OC)c1S(=O)(=O)NC(=O)c1cn(C)c(-c2c(F)cccc2F)n1 [Example 378] |  | 90 | 100 | 90 |
| CCc1ccsc1S(=O)(=O)NC(=O)c1cn(C)c(-c2c(F)cccc2F)n1 [Example 419] | 100 | 90 | 100 |  |
| Cc1c(C(=O)NS(=O)(=O)c2ccccc2)nc(-c2ccccc2Cl)n1C [Example 39] | 90 | 90 | 90 |  |
| Cc1cc(C(=O)NS(=O)(=O)c2ccccc2Br)nn1-c1c(F)cccc1F [Example 257] | 90 | 90 | 100 |  |
| Cc1ccccc1S(=O)(=O)NC(=O)c1cc(C)n(-c2c(F)cccc2F)n1 [Example 139] | 90 | 90 |  |  |
| COc1ccc(Cl)c(S(=O)(=O)NC(=O)c2cn(C)c(-c3ccccc3Cl)n2)c1 [Example 228] | 100 | 100 |  |  |
| CCn1cc(C(=O)NS(C)(=O)=O)nc1-c1ccccc1Cl [Example 79] | 100 | 90 |  |  |
| Cc1ccc(S(=O)(=O)NC(=O)c2cn(C)c(-c3c(F)cccc3F)n2)cc1 [Example 175] | 90 | 100 |  |  |
| CCOc1ccccc1S(=O)(=O)NC(=O)c1cn(C)c(-c2c(F)cccc2F)n1 [Example 16] | 90 | 90 |  |  |
| COc1cccc(C)c1S(=O)(=O)NC(=O)c1cn(C)c(-c2c(F)cccc2F)n1 [Example 365] | 100 | 90 |  |  |
| COc1ccc(S(=O)(=O)NC(=O)c2cn(C)c(-c3c(F)cccc3F)n2)cc1 [Example 47] | 90 | 100 |  |  |
| Cc1ccccc1S(=O)(=O)NC(=O)c1cn(C)c(-c2c(F)cc(F)cc2F)n1 [Example 6] | 100 | 100 |  |  |
| COc1ccc(S(=O)(=O)NC(=O)c2cn(C)c(-c3ccccc3Cl)n2)cc1 [Example 34] | 90 | 100 |  |  |
| CCc1c(C(=O)NS(=O)(=O)c2ccccc2Cl)nc(-c2c(F)cccc2F)n1C [Example 197] | 90 | 100 |  |  |
| CC(C)CS(=O)(=O)NC(=O)c1cn(C)c(-c2c(F)cccc2F)n1 [Example 142] | 100 | 90 |  |  |
| CCOc1cccc(CC)c1S(=O)(=O)NC(=O)c1cn(C)c(-c2c(F)cccc2F)n1 [Example 335] | 90 | 90 |  |  |
| Cn1cc(C(=O)NS(=O)(=O)Cc2ccc(Cl)cc2)nc1-c1ccccc1Cl [Example 63] |  | 100 | 100 |  |
| Cn1cc(C(=O)NS(=O)(=O)c2ccccc2)nc1-c1c(F)cccc1F [Example 48] | 90 | 90 |  |  |
| Cn1cc(C(=O)NS(=O)(=O)c2ccccc2Cl)nc1-c1ccccc1-c1ccccc1 [Example 532] |  | 90 | 100 |  |
| Cn1cc(C(=O)NS(=O)(=O)c2ccsc2)nc1-c1c(F)cccc1F [Example 357] | 90 | 90 |  |  |
| CCn1c(C(=O)NS(=O)(=O)c2ccccc2Cl)nc(-c2c(F)cccc2F)c1C [Example 414] |  | 100 | 100 |  |
| CCc1[nH]c(-c2ccc(F)cc2F)nc1C(=O)NS(=O)(=O)C(C)C [Example 123] | 90 | 90 |  |  |
| CCc1cccc(OC)c1S(=O)(=O)NC(=O)c1cn(C)c(-c2c(F)cccc2F)n1 [Example 200] | 100 | 100 |  |  |
| Cn1cc(C(=O)NS(=O)(=O)c2cc(Cl)sc2Cl)nc1-c1c(F)cccc1F [Example 356] | 90 | 90 |  |  |
| CCn1cc(C(=O)NS(=O)(=O)c2cccc(Cl)c2)nc1-c1ccccc1Cl [Example 40] |  | 100 | 100 |  |
| Cc1cccc(C)c1-c1nc(C(=O)NS(=O)(=O)c2ccccc2Cl)cn1C [Example 477] |  | 90 | 90 |  |

| Compound | pest or weed control at 500 g/ha [1] [%] | pest or weed control at 20 ppm [2] [%] | pest or weed control at 20 ppm [3] [%] | pest or weed control at 100 g/ha ([1]; 100 g/ha) [%] |
| --- | --- | --- | --- | --- |
| Cn1cc(C(=O)NS(=O)(=O)c2ccc(C(F)(F)F)cc2Br)nc1-c1c(F)cccc1F [Example 442] | 90 | 90 |  |  |
| Cc1ccccc1S(=O)(=O)NC(=O)c1cn(C)c(-c2cccc3c2OC(F)(F)O3)n1 [Example 542] | 90 | 100 |  |  |
| Cn1cc(C(=O)NS(=O)(=O)c2ccc(C(F)(F)F)cc2Cl)nc1-c1c(F)cccc1F [Example 441] | 90 | 100 |  |  |
| CC(C)S(=O)(=O)NC(=O)c1cn(C)c(-c2c(F)cccc2Cl)n1 [Example 149] | 90 | 90 |  |  |
| COc1cc(C(=O)NS(=O)(=O)c2ccccc2C)nn1-c1ccccc1Cl [Example 276] |  | 100 | 100 |  |
| O=C(NS(=O)(=O)C1CC1)c1cc(-c2ncccc2Cl)n(-c2ccccc2Cl)n1 [Example 456] |  | 100 | 100 |  |
| CC(C)CS(=O)(=O)NC(=O)c1cn(C)c(-c2c(F)cccc2Cl)n1 [Example 325] |  | 90 | 100 |  |
| CCc1[nH]c(-c2ccc(F)c(F)c2)nc1C(=O)NS(=O)(=O)c1ccccc1C [Example 207] | 90 | 90 |  |  |
| CCOc1c(Cl)cccc1S(=O)(=O)NC(=O)c1cn(C)c(-c2c(F)cccc2F)n1 [Example 314] |  | 90 | 100 |  |
| CCc1ccccc1-c1nc(C(=O)NS(=O)(=O)c2ccccc2OC)cn1C [Example 498] |  | 90 | 100 |  |
| CC(C)S(=O)(=O)NC(=O)c1cn(C)c(-c2ccccc2Cl)n1 [Example 193] | 100 | 90 |  |  |
| Cc1[nH]c(-c2ccccc2Cl)nc1C(=O)NS(=O)(=O)C(C)C [Example 625] |  | 100 | 90 |  |
| COc1ccccc1S(=O)(=O)NC(=O)c1nc(-c2c(F)cccc2F)c(C)n1C [Example 310] | 90 | 100 |  |  |
| Cn1cc(C(=O)NS(=O)(=O)c2ccc(Cl)cc2)nc1-c1c(F)cc(F)cc1F [Example 9] | 90 | 100 |  |  |
| CCc1[nH]c(-c2cccc(Br)c2)nc1C(=O)NS(=O)(=O)c1ccccc1C [Example 134] |  | 90 | 100 |  |
| CCS(=O)(=O)NC(=O)c1cn(C)c(-c2ccccc2Cl)n1 [Example 64] | 90 | 90 |  |  |
| CC(C)Sc1cccc(Cl)c1S(=O)(=O)NC(=O)c1cn(C)c(-c2c(F)cccc2F)n1 [Example 386] |  | 90 | 100 |  |
| Cc1[nH]c(-c2c(F)cccc2F)nc1C(=O)NS(=O)(=O)c1ccccc1Cl [Example 192] |  | 90 | 100 |  |
| CCn1cc(C(=O)NS(=O)(=O)CC(F)(F)F)nc1-c1ccccc1Cl [Example 77] |  | 90 | 90 |  |
| Cn1cc(C(=O)NS(=O)(=O)c2cccc(Cl)c2)nc1-c1c(F)cc(F)cc1F [Example 8] | 90 | 100 |  |  |
| Cn1cc(C(=O)NS(=O)(=O)c2cccc(F)c2Cl)nc1-c1c(F)cccc1F [Example 321] | 100 | 90 |  |  |
| COc1ccc(Cl)c(S(=O)(=O)NC(=O)c2c[nH]c(-c3c(F)cccc3F)n2)c1 [Example 411] |  | 90 | 100 |  |
| Cn1cc(C(=O)NS(=O)(=O)c2ccc(Cl)cc2)nc1-c1ccccc1Cl [Example 230] | 100 | 100 |  |  |
| CC(C)c1ccccc1-c1nc(C(=O)NS(=O)(=O)c2ccccc2Cl)cn1C [Example 209] |  | 90 | 90 |  |
| Cn1cc(C(=O)NS(=O)(=O)c2ccccc2Cl)nc1-c1cc(Cl)ccc1Cl [Example 511] |  | 100 | 100 |  |
| Cc1ccccc1S(=O)(=O)NC(=O)c1cn(C)c(-c2ccccc2[N+](=O)[O-])n1 [Example 525] |  | 100 | 100 |  |
| Cn1cc(C(=O)NS(=O)(=O)c2ccc(Cl)c(Cl)c2)nc1-c1c(F)cccc1F [Example 187] |  | 90 | 100 |  |
